Measurements reported in patent US20250313653A1, “GUEST/HOST INCLUSION COMPLEXES CONTAINING S-NITROSOGLUTATHIONE AND METHODS OF USE THEREOF” (VIRGINIA COMMONWEALTH UNIVERSITY, priority 2022, published 2025).
≈ marks a conversion by molar mass, not a printed value.

Key:
[1] = GSNO decomposition in the presence of biologically relevant reactants (cysteine, L-ascorbic acid, BSA); format: physicochemical; settings: for GSNO left after 24 h of storage: 0.1 M GSNO with 20 mg/mL BSA, 37° C.
Method: GSNO was synthesized by nitrosation of reduced L-glutathione in acidified nitrite as previously reported.^52 After collecting GSNO precipitates and washing them using cold water and acetone, GSNO powder was vacuum dried for 4 h and stored at −20° C. GSNO powders were dissolved in phosphate buffer (PB) containing the same mole of Na2HPO4 before the pH adjustment. For example, the formal concentration of Na2HPO4 is 0.1 M when the GSNO concentration is 0.1 M. One hundred μM EDTA was always added to each solution before the solution pH was finally adjusted to 7.4 via NaOH. EDTA is a chelating agent to mask Cu^2+, a S-nitrosothiol catalyst that may exist in solvents and chemicals as an impurity.^53 For solutions with reactive agents, BSA, ascorbic acid, or cysteine was added before the pH adjustment. To prepare GSNO-CD solutions, appropriate amounts of CD powders were dissolved into the GSNO solutions prior to the pH adjustment.
Aqueous GSNO solutions were contained in 1.5 mL disposable polystyrene cuvettes. The cuvette was caped and further sealed with parafilm. The concentrations of GSNO during storage at 37° C. or 25° C. in the dark were monitored by a UV-vis spectrophotometer (Go Direct® Fluorescence/UV-VIS Spectrophotometer) at a wavelength of 545 nm. A 4 W LED white light was used as the light source for the photodecomposition experiment at room temperature. The distance between the light source and the cuvettes was approximately 10 cm. All GSNO decomposition experiments were triplicated, and the GSNO concentration was expressed as mean±standard deviation.

[2] = NO release from GSNO solutions (chemiluminescence NO analyzer); format: physicochemical; settings: 3 mL of 0.1 M GSNO solution with or without an equal mole of αCD, 37° C.
Method: (§1) The NO release was quantified by an ECO PHYSICS NO analyzer (nCLD 66). […] of castor oil was added to NO release solutions as an antifoam agent when 3 mL GSNO or GSNO-CD solutions were tested in an amber glass cell at 37° C. Humidified air was vacuumed into the solution to carry NO continuously into the chemiluminescence detection chamber at a flow rate of 100 cm^3/min. The solutions were stored in sealed amber glass vials between measurements at 37° C. To monitor the NO release from catheters, solutions were filled into 2.5 cm-long medical-grade silicone tubes (HelixMark® 60-011-07, 1.58 mm ID, 2.41 mm OD) that were scaled on both ends with plastic rods. The filled tubes were placed into the amber glass cell containing 5 mL of 0.01 M PBS with 0.1 mM EDTA (PBSE) at 37° C. N2 was used as the carrier gas at a flow rate of 100 cm^3/min to introduce NO into the analyzer. Filled tubes were stored in 10 mL PBSE at 37° C. in the dark between measurements. The soaking PBSE solution was refreshed after each measurement.

[3] = Stability of GSNO in agar hydrogel (colour fading); format: physicochemical; settings: 1% agar hydrogel, 0.1 M GSNO, 37° C.
Method: Two grams of agar were dissolved in 100 mL of 0.1 M phosphate buffer at pH 7.4 at 80° C. for 3 h with stirring. GSNO solutions at 0.2 M with or without 0.2 M αCD in 0.1 M phosphate buffer at pH 7.4 were prepared separately. Then, 0.5 mL GSNO solution and 0.5 mL dissolved agar were mixed and put into an ice bath to facilitate gelation.

[4] = NO release from silicone rubber tubes filled with lock solutions; format: physicochemical; settings: silicone tube filled with 0.1 M GSNO without or with 0.1 M αCD, 37° C.
Method: as §1

S. aureus = assay: Prevention of intraluminal catheter infection (planktonic and biofilm); format: cell-based; settings: 3-day experiments
Method: Both biofilm and planktonic bacteria were quantified to evaluate the antibacterial activities of the proposed method. LB medium (25 mg/mL) was used to culture all bacterial strains overnight before performing the antibacterial tests. Segments of medical-grade silicone tubes were all autoclaved. Lock solutions were freshly prepared using the sterilized buffer and filtered through a 0.22 m PES syringe filter. The biofilms on the silicone surface were dip-rinsed 5 times in PBS and detached by 1-min vertexing, 1-min sonication (20% power of a 150 W probe sonifier, Branson Ultrasonics), and another 1-min vertexing for plate counting. When quantifying the planktonic bacteria, the suspension was homogenized by 1-min vertexing. […] After plate incubation at 37° C. overnight, colony-forming units (CFU) of bacteria were counted and converted to CFU/cm^2 for biofilm quantification and CFU/mL for planktonic bacteria quantification. […] In our case, the limit of detection (LOD) is 400 CFU/cm^2 for biofilm quantification and 200 CFU/mL for quantification of planktonic bacteria. […] The statistical significance between groups was determined using a student's t-test.
The 0.1 M αCD, 0.1 M GSNO, and 0.1 M GSNO+0.1 M αCD solutions were prepared in LB broth buffered with 0.1 M Na2HPO4 and adjusted to pH 7.4. […] Viable biofilm and planktonic cells were evaluated by plate counting. […]

fibroblast L929 cells = assay: Cytotoxicity test (MTS assay) of lock-solution-filled silicone tubes; format: cell-based, mouse; settings: 24-h incubation of L929 cells with silicone tubes filled with the lock solution
Method: L929 murine fibroblast cells were suspended in complete media (DMEM with 1% penicillin/streptomycin and 10% FBS) before being seeded in a 24-well plate at a concentration of 5×10^5 cells per well. After 24 h of incubation, the attached cells in each well were incubated in fresh media containing a sterilized 1-cm silicone tube (HelixMark® 60-011-07) filled with a lock solution with buffer, GSNO, or GSNO-αCD and with both ends sealed. MTS assays were performed following the manufacturer's procedure after an additional 24-h incubation. Absorbance at 490 nm was measured by a Cytation 3 imaging plate reader (Biotek).

[5] = at low pH; cited from earlier work

Compound: N[C@@H](CCC(=O)N[C@@H](CSN=O)C(=O)NCC(=O)O)C(=O)O [GSNO, S-nitrosoglutathione]
- GSNO lifetime ([1]; 0.1 M GSNO in 0.1 M PB pH 7.4 with 10 mM cysteine or L-ascorbic acid, without αCD): 2 to 3 days
- effect on GSNO decomposition rate ([1]; 0.1 M GSNO with 10 mM cysteine or L-ascorbic acid, addition of 0.1 M αCD, 4-day experiments): remarkably reduces the decomposition rate
- GSNO left after 24 h of storage ([1]; control group without αCD): 21%
- GSNO left after 24 h of storage ([1]; in the presence of 0.1 M αCD): 41%
- duration of NO release [2]: 6 days
- time the reddish color of GSNO lasts ([3]; with an equal mole of αCD): more than 6 days
- time in which the reddish color of GSNO fades ([3]; without αCD): less than 2 days
- initial release of NO on day 0 [4]: 14.8×10^−10 mol cm^−2 min^−1
- duration of NO release over 0.1×10^−10 mol cm^−2 min^−1 from the catheter exterior ([4]; in pH 7.4 PBSE): 6 days
- reduction of bacterial biofilm on silicone rubber (S. aureus): 99.2%
- reduction of growth of planktonic S. aureus compared to the phosphate buffer (S. aureus; 0.1 M GSNO without or with 0.1 M αCD, 37° C.): 5 orders of magnitude
- cytotoxicity / cell viability (MTS) (fibroblast L929 cells): no cytotoxicity
- aqueous solubility [5]: 75 mM (≈ 25.2 mg/mL)
